# Results: EP1946758A1, “Treatment of acute myeloid leukemia” (PIERRE FABRE MEDICAMENT, priority 2007, dated 2008)
# How the values were obtained:
# [1] = Stability in blood serum (hydrolysis followed by TLC); assay type: in vitro ADME; conditions: rat serum, 37°C
# Experimental: The stability of triptolide succinate in blood serum was determined. In this study, a solution of triptolide succinate (the free acid of the sodium triptolide succinate) in DMSO was mixed with rat serum and incubated at 37°C. The mixture was assayed periodically by thin layer chromatography (TLC) to follow the hydrolysis of the triptolide succinate over time. […] After 15 minutes, the triptolide succinate spot was gone and a new spot corresponding to triptolide had appeared (Rf =0.60). Finally, after 45 minutes, the triptolide spot had also disappeared, and only low Rf material (blood serum components and decomposition products) remained.
# Stability in Blood Serum: a solution of triptolide succinate (free acid) in DMSO can be made at a concentration of 25 mg/ml, and 0.1 ml of this solution can be mixed with 0.5 ml of rat serum. The mixture was incubated at 37°C. Aliquots of the mixture should then be taken at 1, 3, 5, 15, 45 minutes and 18 hours and analyzed by thin layer chromatography (TLC). The TLC plates can be developed in 1:5 CH2Cl2/Et2O. After development, the plates can be treated with iodine vapor and examined under a UV lamp. Triptolide and triptolide succinate can be used as reference compounds (Rf =0.60, and 0.45, respectively).
# After 15 minutes, the triptolide succinate spot may be gone (Rf =0.45), and a new spot corresponding to triptolide may have appeared (Rf =0.60). After 45 minutes, the triptolide spot may also disappear, and only low Rf material (blood serum components and decomposition products) may remain.
# [2] = Stability in water (D2O solution followed by proton NMR); assay type: physicochemical; conditions: room temperature; for change in the NMR spectrum: 3 mg/ml
# Experimental: Sodium triptolide succinate was dissolved in D2O, and the aqueous solution was stored at room temperature.
# Stability in Water: a solution of sodium triptolide succinate in D2O can be prepared at a concentration of 3 mg/ml and stored at room temperature. The solution can be analyzed by ^1H NMR at intervals of 1, 3, 5, 15, 45, 90, 180 minutes; 1, 7, 14 days; and 1, 2, 3, and 5 months.
# [3] = tested on: relapsed or refractory acute myeloid leukemia; test: Exploratory dose escalation treatment of patients with relapsed or refractory leukemias; assay type: in vivo
# Experimental: PG490-88 Na is a 14-succinyl triptolide sodium salt of triptolide (PG490).
# In this example, 29 patients with relapsed or refractory leukemias were treated. Median age was 57 years (range : 30 - 79). Sixty two percent of patients were male. Twelve dose levels from 0.150 to 13 mg/m^2/day were tested in one patient each, with an increase by 50% for each successive cohort of patients until one dose limiting toxicity (DLT) was observed. Thereafter, dose escalation was switched to a standard design using cohorts of 3 to 6 patients per dose level, with 30% dose increments.
# Among all the patients, 6 […] presented with a disease refractory to standard induction chemotherapy and the others were in 1st or 2nd relapse who had failed salvage therapy for 9 of them. […]
# [4] = patients with relapsed or refractory leukemias
# [5] = recommended dose of 5.7 mg/m^2/day
compound,measurement,setting,value
Triptolide Succinate,time for hydrolysis in serum to release free triptolide,[1],less than an hour
same,species detected by TLC,[1]; after 3 minutes,only triptolide succinate may be detected
same,triptolide succinate spot (Rf =0.45) by TLC,[1]; after 15 minutes,gone
same,triptolide succinate spot (Rf =0.45) by TLC,[1]; within the first 3 to 5 minutes,most of the triptolide succinate remained
"CC(C)[C@]12O[C@H]1[C@@H]1O[C@]13[C@]1(O[C@H]1C[C@H]1C4=C(CC[C@@]13C)C(=O)OC4)[C@@H]2OC(=O)CCC(=O)[O-].[Na+] [PG490-88 Na, 14-succinyl triptolide sodium salt]",change in the NMR spectrum,[2]; after 5 months,Some decomposition
same,change in the NMR spectrum,[2]; during the first three months,No appreciable change
same,stability in aqueous solution (proton NMR spectra),[2]; after five months,some decomposition
same,stability in aqueous solution (proton NMR spectra),[2]; after three months,unchanged
same,"cerebellar toxicity, patients",[3]; 7 mg/m^2/day (one grade 2 and two grade 4),3 patients
same,"cerebellar toxicity, patients",[3]; 8.5 mg/m^2/day (two grade 4),2 patients
same,response,"[3]; another patient, 8.5 mg/m^2/day, after 2 cycles of treatment",CRp: complete remission without full platelets recovery
same,"cerebellar toxicity, patients",[3]; doses > 5.7 mg/m^2/day,5 patients
same,overall response on relapsed or refractory acute myeloid leukemia,[3]; exploratory dose escalation experiments,very good response
same,response,"[3]; one patient, 5.7 mg/m^2/day, day 15 of the treatment, one cycle",complete remission (CR) with pancytopenia
same,haematological toxicity,"[3]; patient with CRp, 8.5 mg/m^2/day, after cycle 2",no haematological toxicity
same,haematological toxicity,"[3]; patient with CRp, 8.5 mg/m^2/day, after the first cycle",grade 4 aplasia lasting 20 days
same,maximum tolerated dose (MTD),[3]; [4],7 mg/m^2/day
same,recommended dose for this regimen,[3]; [4],5.7 mg/m^2/day
same,"grade 3 leucopenia (related adverse event), patients",[3]; [5],1 patient
same,other related adverse events,[3]; [5],"mild diarrhoea, nausea and vomiting"
same,haematological toxicity,"[3]; third patient (complete remission), 8.5 mg/m^2/day, after the first cycle",moderate leucopenia (grade 1 lasting 2 days)
same,haematological toxicity,"[3]; third patient (complete remission), 8.5 mg/m^2/day, during the second cycle",no haematotoxicity
same,response,"[3]; third patient, 8.5 mg/m^2/day, after 2 cycles of treatment",complete remission
